Laboratory results as given in patent US8632767B2, “3-[1-(3-haloalkyl)triazolyl]phenyl sulphide derivatives as acaricides and insecticides” (Bayer Intellectual Property GmbH, priority 2009, dated 2014).

Tests used:
[1] = log P by HPLC on reversed-phase C18, LC-MS, pH 2.7, formic acid (HCOOH); type: physicochemical; conditions: reversed-phase C18 HPLC column; HPLC C18, pH 2.7, 0.1% aqueous formic acid/acetonitrile
Protocol: The log P values reported in the table above and in the preparation examples were determined in accordance with EEC Directive 79/831 Annex V.A8 by HPLC (High Performance Liquid Chromatography) on reversed-phase columns (C18), with the following methods: ^[b] The determination is made by LC-MS in the acid range at pH 2.7 with 0.1% aqueous formic acid and acetonitrile (containing 0.1% formic acid) as eluents; linear gradient from 10% acetonitrile to 95% acetonitrile. Calibration took place with unbranched alkan-2-ones (having 3 to 16 carbon atoms) of known log P values (log P values determined from the retention times by linear interpolation between two successive alkanones).

[2] = test system: greenhouse red spidermite (Tetranychus urticae); assay: Tetranychus test; OP resistant (TETRUR spray treatment), Example 3; type: in vivo; conditions: foliar, 144 h, spray on bean leaf discs, after 6 days, read-out: effect (mites killed)
Protocol: Solvents: 78.0 parts by weight of acetone • • 1.5 parts by weight of dimethylformamide Emulsifier: 0.5 part by weight of alkylaryl polyglycol ether An appropriate preparation of active compound is prepared by mixing 1 part by weight of active compound with the stated amounts of solvent and emulsifier and diluting the concentrate with emulsifier-containing water to the desired concentration. Leaf discs of bean (Phaseolus vulgaris) infested by all stages of the greenhouse red spidermite (Tetranychus urticae) are sprayed with a preparation of active compound at the desired concentration. After 6 days, the effect in % is determined. Here, 100% means that all of the mites have been killed; 0% means that no mites have been killed.

[3] = test system: larvae of the mustard beetle (Phaedon cochleariae); assay: Phaedon test (PHAECO spray treatment); type: in vivo; conditions: foliar, 168 h, spray on Chinese cabbage leaf discs, after 7 days, read-out: effect (beetle larvae killed)
Protocol: Solvents: 78.0 parts by weight of acetone • • 1.5 parts by weight of dimethylformamide Emulsifier: 0.5 part by weight of alkylaryl polyglycol ether An appropriate preparation of active compound is prepared by mixing 1 part by weight of active compound with the stated amounts of solvent and emulsifier and diluting the concentrate with emulsifier-containing water to the desired concentration. Leaf discs of Chinese cabbage (Brassica pekinensis) are sprayed with a preparation of active compound at the desired concentration and, after they have dried, are populated with larvae of the mustard beetle (Phaedon cochleariae). After 7 days, the effect in % is determined. Here, 100% means that all of the beetle larvae have been killed; 0% means that no beetle larvae have been killed.

[4] = test system: Boophilus microplus; assay: Boophilus microplus test (BOOPMI injection); type: in vivo; conditions: Rhipicephalus microplus, 168 h; 20 μg/animal, injection into abdomen, after 7 days; read-out: activity (no fertile eggs laid)
Protocol: Solvent: Dimethyl Sulphoxide An appropriate preparation of active compound is prepared by mixing 10 mg of active compound with 0.5 ml of solvent and diluting the concentrate with solvent to the desired concentration. The solution of active compound is injected into the abdomen (Boophilus microplus) and the animals are transferred into dishes and kept in a controlled atmosphere. The activity is assessed on the basis of deposition of fertile eggs. After 7 days, the effect in % is determined. Here, 100% means that none of the ticks has laid fertile eggs.

Row | SMILES | chromatographic logP [1] | pest or weed control at 500 g/ha [2] | pest or weed control at 100 g/ha [2] | pest or weed control at 500 g/ha [3] | pest or weed control at 0.02 mg [4]
1 | Cc1cc(C)c(-n2cnc(C(F)(F)C(F)(F)Cl)n2)cc1SSc1cc(-n2cnc(C(F)(F)C(F)(F)Cl)n2)c(C)cc1C [II-A-6] | 6.62 | – | – | – | –
2 | Cc1cc(F)c(-n2cnc(C(F)F)n2)cc1SCC#N [I-A-24] | 2.31 | 100% | – | – | –
3 | Cc1ccc(NNC(=O)C(F)(F)C(F)(F)Cl)c(C)c1 [V-1] | 2.96 | 90% | – | – | –
4 | Cc1cc(C)c(-n2cnc(C(F)(F)C(F)(F)F)n2)cc1SCC(C)C [I-A-34] | 5.58 | – | 100% | – | –
5 | Cc1cc(C)c(-n2cnc(C(F)F)n2)cc1SSc1cc(-n2cnc(C(F)F)n2)c(C)cc1C [II-A-1, 1,1′-[Disulphanediylbis(4,6-dimethylbenzene-3,1-diyl)]bis[3-(difluoromethyl)-1H-1,2,4-triazole]] | 4.45 | – | – | – | –
6 | Cc1cc(C)c([S+]([O-])CC#N)cc1-n1cnc(C(F)F)n1 (stereo not drawn) [I-A-25] | 1.49 | 100% | – | – | –
7 | Cc1ccc(N/N=C(\N)C(F)F)c(Cl)c1 [X-1] | 2.5 | – | – | – | –
8 | Cc1cc(C)c([S+]([O-])CC(F)F)cc1-n1cnc(C(F)(F)C(F)(F)Cl)n1 (stereo not drawn) [I-A-12] | 3.02 | – | 100% | 100% | 100%
9 | Cc1ccc(-n2cnc(C(F)(F)C(F)(F)Cl)n2)c(C)c1 [IV-A-1] | 3.88 | – | – | – | –
10 | Cc1ccc(-n2cnc(C(F)(F)C(F)(F)F)n2)c(C)c1 [IV-A-5] | 3.78 | – | – | – | –
11 | Cc1ccc(-n2cnc(C(F)F)n2)c(C)c1 [IV-A-2, 3-(Difluoromethyl)-1-(2,4-dimethylphenyl)-1H-1,2,4-triazole] | 2.43 | 80% | – | – | –
12 | Cc1cc(C)c(-n2cnc(C(F)F)n2)cc1SCC1CC1 [I-A-13] | 3.85 | – | 100% | – | –
13 | Cc1cc(C)c([S+]([O-])CC(C)C)cc1-n1cnc(C(F)(F)C(F)(F)F)n1 (stereo not drawn) [I-A-39] | 3.46 | – | 100% | – | 100%
14 | Cc1cc(F)c(-n2cnc(C(F)F)n2)cc1SCC(F)F [I-A-6] | 2.94 | – | 100% | 100% | –
15 | Cc1cc(C)c(-n2cnc(C(F)(F)C(F)(F)F)n2)cc1SCC(F)F [I-A-7] | 4.22 | – | 100% | – | 100%
16 | Cc1cc(C)c([S+]([O-])CC2CC2)cc1-n1cnc(C(F)F)n1 (stereo not drawn) [I-A-33] | 2.05 | 100% | – | – | –
17 | Cc1ccc(NNC(=O)C(F)(F)C(F)(F)F)c(C)c1 [V-2] | 2.91 | – | – | – | –
18 | Cc1cc(F)c(-n2cnc(C(F)F)n2)cc1SCC1CC1 [I-A-31] | 3.81 | – | 100% | 100% | –
19 | Cc1cc(C)c(-n2cnc(C(F)F)n2)cc1SCC#N [I-A-20] | 2.47 | 100% | – | – | –
20 | Cc1cc(F)c(-n2cnc(C(F)F)n2)cc1[S+](C)[O-] (stereo not drawn) [I-A-22] | 1.37 | 80% | – | – | –
21 | N/C(=N\Nc1ccc(F)cc1)C(F)F [X-3] | 1.34 | – | – | – | –
22 | Cc1cc(C)c([S+]([O-])CC(F)F)cc1-n1cnc(C(F)(F)C(F)(F)F)n1 (stereo not drawn) [I-A-8] | 2.95 | – | 100% | – | 100%
23 | Cc1cc(C)c(-n2cnc(C(F)F)n2)cc1SCC(F)(F)C(F)F [I-A-19] | 3.37 | – | 100% | – | –
24 | Cc1cc(C)c(-n2cnc(C(F)(F)C(F)F)n2)cc1SSc1cc(-n2cnc(C(F)(F)C(F)F)n2)c(C)cc1C [II-A-5] | 5.22 | – | – | – | –
25 | Cc1ccc(-n2cnc(C(F)F)n2)cc1SSc1cc(-n2cnc(C(F)F)n2)ccc1C [II-A-7] | 4.19 | – | – | – | –
